Assay results published in patent publication US6458580B1, “Fungal sulphur source and method of using the same” (Commonwealth Scientific and Industrial Research Organisation, priority 1997, dated 2002).
Several values for one entry are separate records, joined by “and”; a condition that tells them apart may be missing. Equal values may be shown once.

Assays:
Cellutolytic Bacteria = assay: Effect of infusion on cellulolytic bacteria in rumen fluid (most probable number); type: in vivo; parameters: Cellutolytic Bacteria, MPA: unit not given here; settings: individual sheep and Aver. n = 13; for Cellutolytic Bacteria, MPA: MPA infused at 192 mg Sulphur/sheep/day; for Cellutolytic Bacteria, log (+): versus control period
Description: (§1) Feed was prepared as previously described (see example 4). Initially 22 sheep were fed 1 kg of alkali straw/day in the animal house for 4 days to select out sheep not eating the diet. 19 sheep were weighted and transferred to metabolism cages and feed the alkali straw diet ad-lib. Sheep were fed and on the following day the feed refusal weighted and if less then 100 g remained a further 100 g was fed; if 100-200g of feed remained the sheep was given the same amount of feed; if over 200 g of feed was left the sheep was given 100 g less feed. Over the following week another 6 sheep were moved out of the experiment (usually due to very low or erratic intakes). […] After 14 days infusion the collection period of 7 days commenced. At the end of the collection period samples of rumen digesta were taken for microbiology and other analyses. Rumen fluid was collected and fungal zoospores and total bacteria assessed as described in example 4 (the total bacteria were assessed on the same medium but without antibiotics). Cellulolytic bacteria were assessed by a most probable number count. Rumen fluid was serially diluted and subsamples of each dilution inoculated into 5 culture tubes containing an anaerobic medium containing rumen fluid and strips of filter paper. After incubation the presence of cellulolytic bacteria was detected by degradation of the paper and the numbers of positive tubes compared to tables to give a number of these bacteria in the original sample. Following the last sampling the infusion was stopped in the first group of sheep and on the following day the infusion treatment was begun in the other group of seven sheep. The second period (the crossover) was conducted in the same way as the first period with the same samples being taken at the same times.

Total Bacteria = assay: Effect of infusion on total bacteria in rumen fluid; type: in vivo; parameters: Total Bacteria, MPA: unit not given here; settings: individual sheep and Aver. n = 13; for Total Bacteria, MPA: MPA infused at 192 mg Sulphur/sheep/day; for Total Bacteria, log (+): versus control period
Description: as §1

Fungal Zoospores = assay: Effect of infusion on fungal zoospores in rumen fluid; type: in vivo, sheep; settings: for Fungal Zoospores, MPA: MPA infused at 192 mg Sulphur/sheep/day; for Fungal Zoospores, MPA / Fungal Zoospores, log (+): log10 increase after infusion of MPA: individual sheep and Aver. n = 13; for Fungal Zoospores, log (+): log10 increase after infusion of MPA: versus control period
Description: as §1, with “times. The number of zoospores in samples of strained ruminal fluid can be used to follow zoosporogenesis in the rumen and it provides a relative estimate of the size of the anaerobic fungal population. (1) Strain a sample of ruminal digesta through an open weave cloth, and collect the filtered fluid in a CO2-filled flask. (2) Serially dilute the fluid ten-fold in anaerobic dilution solution (ADS) to a final dilution of 10^−3. To do this, transfer 1 ml volumes using 1 ml disposable sterile syringes fitted with sterile 23 gauge (0.65 mm) needles to tubes containing 9 ml ADS, starting with fluid to form the 10^−1 dilution. Use a clean syringe at each dilution step. (3) Using a 1 ml syringe (and 23 ga. needle, as before) inoculate three roll tubes each with 0.2 ml of 10^−3 dilution. Immediately roll these tubes horizontally on ice until the agar sets. With the same syringe, inoculate three more roll tubes with 0.2 ml of 10^−2 dilution and roll them. Repeat with 10^−1 dilution and finally with undiluted fluid, if appropriate. (4) Incubate the roll tubes vertically at 39° C. for 5 d.” for “times.”

O=C(O)CCS [MPA, 3-mercaptopropanoic acid]
Cellutolytic Bacteria, MPA (Cellutolytic Bacteria): 6.96 × 10^8 and 0.556 × 10^8 and 4.42 × 10^8 and 1.84 × 10^8 and 2.173 × 10^8 and 3.447 × 10^8 and 1.086 × 10^8 and 0.912 × 10^8 and 3.219 × 10^8 (3×) and 18.37 × 10^8 and 3.22 × 10^8
Cellutolytic Bacteria, MPA (Cellutolytic Bacteria; mean): 4.05 × 10^8
Cellutolytic Bacteria, log (+) (Cellutolytic Bacteria): 0.58 log and −0.52 log and 0.38 log and −0.24 log (2×) and 0.07 log and 0.50 log and 0.12 log and 1.76 log and 0.76 log and 1.00 log and 0.62 log and 0.47 log
Cellutolytic Bacteria, log (+) (Cellutolytic Bacteria; mean): 0.40 log
Total Bacteria, MPA (Total Bacteria): 10.50 × 10^8 (2×) and 8.07 × 10^8 and 6.83 × 10^8 and 7.50 × 10^8 and 10.00 × 10^8 and 7.17 × 10^8 and 5.87 × 10^8 and 12.00 × 10^8 and 14.50 × 10^8 and 10.83 × 10^8 and 10.67 × 10^8 and 6.33 × 10^8
Total Bacteria, MPA (Total Bacteria; mean): 9.29 × 10^8
Total Bacteria, log (+) (Total Bacteria): 0.27 log and 0.31 log (2×) and −0.34 log (2×) and −0.17 log and 0.02 log and 0.05 log and 0.25 log (2×) and 0.29 log and 0.33 log and 0.10 log
Total Bacteria, log (+) (Total Bacteria; mean): 0.10 log
response in numbers of rumen fungi to infusion (Fungal Zoospores; 192 mg Sulphur/day/sheep, with the exception of one animal): strong, positive, response
Fungal Zoospores, MPA (Fungal Zoospores): 2567 per ml rumen fluid and 7083 per ml rumen fluid and 3050 per ml rumen fluid and 7283 per ml rumen fluid and 1783 per ml rumen fluid and 7250 per ml rumen fluid and 6167 per ml rumen fluid and 4417 per ml rumen fluid and 9017 per ml rumen fluid and 6467 per ml rumen fluid and 11167 per ml rumen fluid and 5383 per ml rumen fluid and 4900 per ml rumen fluid
Fungal Zoospores, MPA (Fungal Zoospores; mean): 5887 per ml rumen fluid
Fungal Zoospores, log (+): log10 increase after infusion of MPA (Fungal Zoospores): 2.7 log10 and 2.5 log10 and 2.0 log10 and 2.3 log10 and 0.4 log10 and 0.5 log10 and 0.7 log10 and 0.8 log10 and 0.2 log10 and 0.6 log10 and 1.0 log10 (2×) and 1.1 log10
Fungal Zoospores, log (+): log10 increase after infusion of MPA (Fungal Zoospores; mean): 1.20 log10
